Results on seven compounds are retold here after patent publication US20060030574A1, “Quinazoline derivatives useful for the treatment of peripheral arterial disease and as phosphodiesterase inhibitors” (Shire Holdings AG, priority 2004, published 2006).

Several values for one entry are separate records, joined by “and”; a condition that tells them apart may be missing. Equal values may be shown once. Read-outs that look alike come from different tables or passages of the source.

One series deals with Phosphodiesterase I. An excerpt: (§1) The profile of activity against a selection of phosphodiesterases (I-VI) was investigated. The methods used for the evaluation of the biological activity are all well known in the art. See for example, Weishaar et al; Biochem. Pharmacol., 35:787-800.
A further series deals with Phosphodiesterase V (h) (Homo sapiens, UniProt O76074). As to the kind of experiment: Phosphodiesterase V (h) inhibition. The format is biochemical.
Excerpt: as §1

The target in another series is Phosphodiesterase II (h) (Homo sapiens, UniProt O00408). The experiment in a line: Phosphodiesterase II (h) inhibition. The format is biochemical.
In series [1] the target is Phosphodiesterase III (h) (Homo sapiens, UniProt Q14432). As to the kind of experiment: Phosphodiesterase III (h) inhibition. Type of series: biochemical.
The next series concerns Phosphodiesterase IV (h). As to the kind of experiment: Phosphodiesterase IV (h) inhibition. The format is biochemical, human. As to conditions: 10 μM; percent inhibition of control activity, mean values, n = 2.
The next series has as its target T1, Phosphodiesterase VI (Bos taurus, UniProt P11541+P23439).
T1 sequence (P11541 2-856): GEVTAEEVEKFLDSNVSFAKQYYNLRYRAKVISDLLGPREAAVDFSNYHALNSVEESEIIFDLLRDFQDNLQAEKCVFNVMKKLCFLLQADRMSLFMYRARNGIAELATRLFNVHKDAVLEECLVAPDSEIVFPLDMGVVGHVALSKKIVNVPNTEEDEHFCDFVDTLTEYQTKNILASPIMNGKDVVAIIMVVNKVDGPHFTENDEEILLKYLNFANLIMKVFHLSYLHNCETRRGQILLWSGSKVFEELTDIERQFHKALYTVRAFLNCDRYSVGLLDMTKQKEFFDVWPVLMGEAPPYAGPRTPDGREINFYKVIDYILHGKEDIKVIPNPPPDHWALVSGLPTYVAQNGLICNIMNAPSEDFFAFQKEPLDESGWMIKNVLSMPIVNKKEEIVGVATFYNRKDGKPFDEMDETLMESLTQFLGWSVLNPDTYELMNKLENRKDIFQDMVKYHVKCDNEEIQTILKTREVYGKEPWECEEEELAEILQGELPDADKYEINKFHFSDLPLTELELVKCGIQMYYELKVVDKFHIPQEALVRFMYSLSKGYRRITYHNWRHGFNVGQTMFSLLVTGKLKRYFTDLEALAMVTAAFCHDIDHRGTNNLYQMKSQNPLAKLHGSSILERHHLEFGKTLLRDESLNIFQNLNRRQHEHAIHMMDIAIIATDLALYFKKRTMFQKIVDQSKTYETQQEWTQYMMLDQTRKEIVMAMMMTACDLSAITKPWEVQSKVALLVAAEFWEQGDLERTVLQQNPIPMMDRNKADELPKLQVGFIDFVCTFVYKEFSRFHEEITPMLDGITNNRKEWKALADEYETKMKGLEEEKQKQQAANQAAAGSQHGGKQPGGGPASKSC
T1 sequence (P23439 2-850): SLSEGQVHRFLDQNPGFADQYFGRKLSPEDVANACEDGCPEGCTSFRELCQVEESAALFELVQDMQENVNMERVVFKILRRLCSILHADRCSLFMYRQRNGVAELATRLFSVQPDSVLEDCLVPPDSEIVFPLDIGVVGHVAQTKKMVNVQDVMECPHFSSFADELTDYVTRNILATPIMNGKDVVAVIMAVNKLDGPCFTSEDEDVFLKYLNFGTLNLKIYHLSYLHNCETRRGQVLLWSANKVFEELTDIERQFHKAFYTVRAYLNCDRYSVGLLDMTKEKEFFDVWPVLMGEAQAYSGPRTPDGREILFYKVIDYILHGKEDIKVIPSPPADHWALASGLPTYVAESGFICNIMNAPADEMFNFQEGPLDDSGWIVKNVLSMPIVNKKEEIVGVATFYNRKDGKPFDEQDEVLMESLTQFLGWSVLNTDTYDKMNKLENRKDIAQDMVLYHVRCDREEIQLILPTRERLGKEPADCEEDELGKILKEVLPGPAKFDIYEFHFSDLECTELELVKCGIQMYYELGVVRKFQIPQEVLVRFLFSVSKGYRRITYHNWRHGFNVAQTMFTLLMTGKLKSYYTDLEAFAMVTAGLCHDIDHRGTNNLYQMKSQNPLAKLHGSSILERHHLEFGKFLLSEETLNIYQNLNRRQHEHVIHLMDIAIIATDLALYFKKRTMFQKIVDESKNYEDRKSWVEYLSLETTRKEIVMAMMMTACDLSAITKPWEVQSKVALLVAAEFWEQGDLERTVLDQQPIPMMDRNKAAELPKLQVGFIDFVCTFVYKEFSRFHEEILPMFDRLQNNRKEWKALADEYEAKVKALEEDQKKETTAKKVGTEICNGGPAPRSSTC
T1 sequence (P04972 1-87 partner): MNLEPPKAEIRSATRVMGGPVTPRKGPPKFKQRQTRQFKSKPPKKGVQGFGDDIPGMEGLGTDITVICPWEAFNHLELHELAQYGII
As to the kind of experiment: Phosphodiesterase VI inhibition. The format is biochemical. The procedure: The IC50 value against PDEVI was determined.

[2] abbreviates: Hill coefficient of the reference compound.
Setting [3] is: Hill coefficient of the test compound.

Phosphodiesterase II (h), sequence (O00408 whole entry): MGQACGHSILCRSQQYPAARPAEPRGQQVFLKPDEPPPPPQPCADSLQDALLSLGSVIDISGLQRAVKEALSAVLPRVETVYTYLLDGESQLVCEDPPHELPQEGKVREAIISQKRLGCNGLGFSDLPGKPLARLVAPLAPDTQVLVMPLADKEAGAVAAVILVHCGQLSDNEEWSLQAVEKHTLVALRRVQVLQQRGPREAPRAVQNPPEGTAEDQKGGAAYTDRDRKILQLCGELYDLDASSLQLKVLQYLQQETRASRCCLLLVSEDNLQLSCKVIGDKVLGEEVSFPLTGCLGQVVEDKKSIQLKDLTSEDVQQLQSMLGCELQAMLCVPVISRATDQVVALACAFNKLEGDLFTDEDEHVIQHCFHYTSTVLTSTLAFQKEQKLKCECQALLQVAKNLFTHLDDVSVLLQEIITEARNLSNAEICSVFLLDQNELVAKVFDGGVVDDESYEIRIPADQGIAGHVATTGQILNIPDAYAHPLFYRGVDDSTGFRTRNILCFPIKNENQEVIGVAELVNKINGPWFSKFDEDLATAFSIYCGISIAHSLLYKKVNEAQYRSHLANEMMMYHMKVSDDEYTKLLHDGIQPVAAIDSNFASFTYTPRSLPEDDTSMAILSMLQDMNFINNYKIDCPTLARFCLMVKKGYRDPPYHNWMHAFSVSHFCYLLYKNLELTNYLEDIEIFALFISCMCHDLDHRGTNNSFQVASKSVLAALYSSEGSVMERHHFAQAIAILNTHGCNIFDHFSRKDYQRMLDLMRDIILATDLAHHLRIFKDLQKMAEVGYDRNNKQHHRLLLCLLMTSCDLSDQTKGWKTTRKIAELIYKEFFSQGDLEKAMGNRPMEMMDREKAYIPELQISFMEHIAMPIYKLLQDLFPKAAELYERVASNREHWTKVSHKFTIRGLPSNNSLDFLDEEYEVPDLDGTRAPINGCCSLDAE
Phosphodiesterase III (h), sequence (Q14432 whole entry): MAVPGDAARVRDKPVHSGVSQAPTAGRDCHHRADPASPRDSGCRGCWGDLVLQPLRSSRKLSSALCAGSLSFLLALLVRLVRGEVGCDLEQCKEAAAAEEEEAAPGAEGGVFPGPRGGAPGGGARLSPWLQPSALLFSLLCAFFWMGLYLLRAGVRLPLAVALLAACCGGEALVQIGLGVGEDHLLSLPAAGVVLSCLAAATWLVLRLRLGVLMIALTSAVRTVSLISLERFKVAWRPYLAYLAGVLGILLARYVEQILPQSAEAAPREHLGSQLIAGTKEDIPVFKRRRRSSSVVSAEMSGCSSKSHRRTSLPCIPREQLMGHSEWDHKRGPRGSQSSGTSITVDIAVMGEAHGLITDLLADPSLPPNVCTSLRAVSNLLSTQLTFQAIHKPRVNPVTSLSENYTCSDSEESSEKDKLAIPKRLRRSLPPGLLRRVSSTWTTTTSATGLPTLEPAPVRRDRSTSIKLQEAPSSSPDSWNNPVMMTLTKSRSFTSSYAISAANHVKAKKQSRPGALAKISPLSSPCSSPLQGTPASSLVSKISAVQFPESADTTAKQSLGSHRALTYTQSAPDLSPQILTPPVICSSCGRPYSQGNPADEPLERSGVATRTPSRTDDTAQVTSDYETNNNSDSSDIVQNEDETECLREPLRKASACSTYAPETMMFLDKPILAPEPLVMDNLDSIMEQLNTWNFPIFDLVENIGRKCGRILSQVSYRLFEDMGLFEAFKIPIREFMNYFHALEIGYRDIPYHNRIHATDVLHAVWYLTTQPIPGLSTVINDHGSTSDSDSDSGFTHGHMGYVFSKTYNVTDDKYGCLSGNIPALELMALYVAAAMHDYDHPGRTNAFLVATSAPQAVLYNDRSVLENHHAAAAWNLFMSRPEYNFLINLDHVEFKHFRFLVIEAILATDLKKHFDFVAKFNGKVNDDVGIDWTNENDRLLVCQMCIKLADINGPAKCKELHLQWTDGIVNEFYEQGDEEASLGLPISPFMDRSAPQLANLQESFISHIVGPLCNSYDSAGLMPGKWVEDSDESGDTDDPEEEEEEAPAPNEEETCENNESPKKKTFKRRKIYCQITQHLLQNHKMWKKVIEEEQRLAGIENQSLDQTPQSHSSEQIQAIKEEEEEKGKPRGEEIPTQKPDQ

For orientation: IC50 means the point on the concentration scale where inhibition reaches its midpoint. `COCc1nc2c([nH]1)c(=O)n(C)c(=O)n2CC(C)C` [8-methoxy-IBMX, reference compound]: the concentration for half-maximal inhibition (IC50) on Phosphodiesterase I (read-out: Reference compounds IC50, control value for the reference compound) was determined as 2410 nM.
Consider `OCCN(CCO)c1nc(N2CCCCC2)c2nc(N(CCO)CCO)nc(N3CCCCC3)c2n1` [dipyridamole, reference compound], for which, on Phosphodiesterase V (h) (setting [2]), the “Reference compounds (nH)” value was “(1.3)”.
Regarding `CCCCCC[C@@H]([C@@H](C)O)n1cnc2c(N)ncnc21` (racemic) [EHNA], on Phosphodiesterase II (h) (setting [2]), the “Reference compounds (nH)” value was “(0.7)”. In addition, the half-maximal inhibitory concentration (IC50) on Phosphodiesterase II (h) (control value for the reference compound, read-out: Reference compounds IC50) amounted to 2600 nM.
As a reminder, the melting point is the temperature of the solid-liquid transition. With `O=C1NC2=Nc3ccc(Cl)c(Cl)c3CN2C1O` (stereo not shown) [Compound #3, 6,7-dichloro-3-hydroxy-1,5-dihydro-imidazo[2,1-b]quinazolin-2-one], the melting point is 170 °C (dec.).
For the compound `Cc1[nH]c(=O)c(C#N)cc1-c1ccncc1` [milrinone, reference compound], the “Reference compounds (nH)” value in series [1] (setting [2]) is 0.6.
Usually % inhibition stands for how much of the control response was suppressed. Read a high % inhibition as a strong effect. As usually defined, the inhibition is the percentage by which the read-out fell short of the control. Lower therefore signals a weak effect. With `O=CC(=O)NC1=Nc2ccc(Cl)c(Cl)c2CN1` [Compound#1, N-(5,6-dichloro-3,4-dihydroquinazolin-2-yl)-2-oxoacetamide], the “% inhibition” value is reported as 26% in the series on Phosphodiesterase I (10 μM, percent inhibition of control activity, mean values, n = 2) and “— (The symbol - indicates an inhibition of less than 10%.)” in the series with Phosphodiesterase IV (h). Further, the inhibition at 10 µM on Phosphodiesterase II (h) was under 10%; in series [1], 97%; against Phosphodiesterase V (h) it was 64%; against Phosphodiesterase VI, 89%. The IC50 in series [1] (average of two separate occasions, read-out: IC50 (average)) was 0.9 nM; in series [1] (test compound, assay 1 and assay 2 (two separate occasions), read-out: IC50), 0.69 nM and 1.1 nM. For the same compound, the “(nH)” value on Phosphodiesterase VI (setting [3]) was “(1.0)”.
Regarding `O=C1NC2=NCc3c(ccc(Cl)c3Cl)N2C1O` (stereo not shown) [Compound#5, (6,7-Dichloro-1-hydroxy-3,5-dihydro-imidazo[1,2-a]quinazolin-2-one)], in series [1] (setting [3]), the “(nH)” value was 0.4.
